The target of one data set is T1, CYP3A4 (Homo sapiens, UniProt P08684).
T1 construct: utilizes human liver microsomes together with isoform-specific clinical drug probes; from tissue; host or cells: human liver microsomes
Description: High density DDI 3 μM cocktail screen in human liver microsomes, midazolam probe. The data set is classed as in vitro ADME. To be noted: human, liver microsomes, probe midazolam, read-out: % inhibition 3A4 @ 3 μM. The gist of the method:
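Pooled human liver microsomes incubated with isoform-specific clinical probe substrates as a cocktail (midazolam for CYP3A4), with or without test compound at 3 μM. Metabolite formation followed over time by LC-MS/MS. Inhibition expressed as a single-point percentage.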

Another data set concerns the target MC4 receptor (Homo sapiens, UniProt P32245). Kind of data set: MC4 EC50 functional potency (protocol E of US2005/0176772 / WO 2005/077935). The data set is classed as cell-based. Here is the method: The compounds of formula (I) of the present invention have utility as MCR4 agonists in the treatment of various disease states.
MC5 and MC4 EC50 activity was determined as described by assay protocols D and E, respectively, in US2005/0176772 (pages 28-30).

The target of a further data set is T2, human MC3 receptors (Homo sapiens, UniProt P41968).
T2 construct: stably transfected with full length cDNA encoding human MC1 or MC3 receptors; expressed in transfected cells
Description: In vitro agonist potency (EC50) at melanocortin receptor type 3, cAMP in recombinant cell line. The data set is classed as cell-based. Here is the method:
Measurement of In Vitro Agonist Potency (EC50) of Compounds Against Melanocortin Receptors Type 1 and 3 (MC1 and MC3).
Activation of melanocortin (MC) receptors by agonists results in activation of intracellular adenylate cyclase enzymes that synthesise the second messenger signalling molecule, adenosine 3′,5′-cyclic monophosphate (cAMP). Changes in cAMP levels following treatment of recombinant MC1 and MC3 cell lines with test compound were measured and an MC1 and MC3 potency estimate (EC50) calculated as follows: […]
Human embryonic kidney (HEK) or Chinese hamster ovary cell lines stably transfected with full length cDNA encoding human MC1 or MC3 receptors, respectively, were established using standard molecular biology methods. Test compounds were dissolved in dimethyl sulfoxide (DMSO) at 4 mM. 11 point half log unit increment dilution series of test compound, typically starting at 50 uM were prepared in a buffer comprised of phosphate buffered saline (PBS), 2.5% DMSO and 0.05% pluronic F-127 surfactant. Freshly cultured cells at 80-90% confluence were harvested and re-suspended in Dulbecco's Modified Eagle's Medium (DMEM). Cells (10,000 for MC3, 20,000 for MC1) were added to the test compound dilution series in a 384 well assay plate and incubated for 1 hour at 37° C. The relative cAMP concentration in each well was then measured using a β-galactosidase enzyme fragment complementation method purchased in kit form as the Discoverx cAMP II kit from GE Healthcare/Amersham Biosciences UK. In the case of MC1,3-Isobutyl-1-methylxanthine (IBMX) at a concentration of 750 μM was included in DMEM as the cells were re-suspended for assay. […] Sigmoidal curves were fitted to plots of log10 inhibitor concentration vs percent effect using a custom made software application called SIGHTS and EC50 estimates determined by the software as the concentration of test compound giving an effect half way between the bottom and top asymptotes of the sigmoidal dose response curve. Each experiment included an EC50 determination for alpha melanocyte stimulating hormone, which was used as a standard to track assay consistency and allow fair comparison between EC50 estimates obtained in different experiments.

The next data set concerns the target T3, MC4 receptor (MC4R) (Homo sapiens, UniProt P32245).
T3 construct: expressed in transfected cells; host or cells: CHO-CRE MC4R cells (membranes)
Kind of data set: Nle4, D-Phe7-α-MSH inhibition at the MC4 receptor (competition binding, SPA, CHO-CRE MC4R membranes). The gist of the method: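 Competition binding by SPA used CHO-CRE MC4R membranes on WGA beads (0.15 ug membrane/well) with 0.06 nM [125I] Nle4, D-Phe7-α-MSH and 11 half-log competitor concentrations in duplicate. Buffer was 25 mM HEPES pH 7 with MgCl2, CaCl2, Pluronic F68 and protease inhibitors; incubation was 12 hours at room temperature. Non-specific binding was set with 100 nM SHU9119, and Ki was calculated.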

Our source for the inhibition, EC50 and Ki values is patent publication US8592403B2, “Diazepine and diazocane compounds as MC4 agonists” (Pfizer Limited, priority 2008, dated 2013).

Structures are written as SMILES.

MC4 receptor, sequence (P32245 whole entry): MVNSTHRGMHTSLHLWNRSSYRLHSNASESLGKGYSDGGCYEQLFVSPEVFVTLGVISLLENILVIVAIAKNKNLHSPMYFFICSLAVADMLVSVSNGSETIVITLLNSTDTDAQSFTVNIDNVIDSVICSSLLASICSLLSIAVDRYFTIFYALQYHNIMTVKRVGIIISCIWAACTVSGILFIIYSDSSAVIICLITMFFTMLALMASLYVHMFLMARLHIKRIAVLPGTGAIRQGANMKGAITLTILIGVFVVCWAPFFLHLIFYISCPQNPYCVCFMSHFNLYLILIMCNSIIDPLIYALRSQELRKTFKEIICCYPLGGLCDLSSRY
T3 sequence (P32245 whole entry): as above
T2 sequence (P41968 whole entry): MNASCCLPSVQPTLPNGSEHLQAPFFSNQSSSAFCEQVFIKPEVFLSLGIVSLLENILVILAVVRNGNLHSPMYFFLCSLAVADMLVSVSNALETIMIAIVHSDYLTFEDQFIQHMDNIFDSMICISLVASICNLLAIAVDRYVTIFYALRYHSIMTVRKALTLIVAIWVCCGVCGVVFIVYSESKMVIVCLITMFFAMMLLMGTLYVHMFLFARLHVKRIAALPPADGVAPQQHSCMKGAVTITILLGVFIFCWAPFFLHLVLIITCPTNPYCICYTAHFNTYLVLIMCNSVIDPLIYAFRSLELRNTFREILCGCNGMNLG
T1 sequence (P08684 whole entry, canonical isoform): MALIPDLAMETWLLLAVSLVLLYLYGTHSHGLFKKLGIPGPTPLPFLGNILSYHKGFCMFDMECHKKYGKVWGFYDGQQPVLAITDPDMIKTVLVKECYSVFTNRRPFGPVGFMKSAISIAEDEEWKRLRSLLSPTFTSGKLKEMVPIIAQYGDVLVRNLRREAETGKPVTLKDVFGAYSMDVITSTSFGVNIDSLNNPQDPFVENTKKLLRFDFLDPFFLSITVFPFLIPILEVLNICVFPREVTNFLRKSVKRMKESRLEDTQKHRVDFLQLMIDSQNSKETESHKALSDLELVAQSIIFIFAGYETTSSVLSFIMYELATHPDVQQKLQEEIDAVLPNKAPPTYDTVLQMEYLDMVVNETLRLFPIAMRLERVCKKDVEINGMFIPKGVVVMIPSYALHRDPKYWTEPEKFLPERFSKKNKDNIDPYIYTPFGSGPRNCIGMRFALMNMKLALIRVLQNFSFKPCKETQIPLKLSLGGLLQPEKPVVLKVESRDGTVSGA

For `CC(C)(C)N1C[C@@H](C(=O)N2CCC[C@@H](c3ccc(Cl)cc3)N(C(=O)C3CCC3)CC2)[C@H](c2ccc(F)cc2F)C1` [Example 14], the inhibition at 3 µM at CYP3A4 stood at 56.1%. Further, the results for the EC50 on MC4 receptor and at human MC3 receptors were 13.4 nM and 8590 nM, respectively. The compound further returned a Ki on MC4 receptor (MC4R) of 378 nM.
In the case of `CS(=O)(=O)N1CCN(C(=O)[C@@H]2CN(c3ccc(=O)[nH]n3)C[C@H]2c2ccc(F)cc2F)CCCC1c1ccc(Cl)cc1` (mixture of isomers) [Example 79], the inhibition at 3 µM on CYP3A4 was found to be 51%. Also, the EC50 at MC4 receptor is 17.1 nM; on human MC3 receptors, 1820 nM. At MC4 receptor (MC4R), this compound came in with a Ki of 107 nM.
The matching figures for `CC(=O)N1CCN(C(=O)[C@@H]2CN(c3ccc(C#N)nn3)C[C@H]2c2ccc(Cl)cn2)CCC[C@H]1c1ccc(Cl)cc1` [Example 72]: 20.4%, 26.1 nM, 88.6 nM and 71.4 nM.
For the compound `COc1ccc([C@@H]2CN(c3ccc(=O)[nH]n3)C[C@H]2C(=O)N2CCC[C@@H](c3ccc(Cl)cc3)N(C(C)=O)CC2)c(F)c1` [Example 68, 6-[(3S,4R)-3-{[4-acetyl-5S-(4-chlorophenyl)-1,4-diazocan-1-yl]carbonyl}-4-(2-fluoro-4-methoxyphenyl)pyrrolidin-1-yl]pyridazin-3(2H)-one], the inhibition at 3 µM at CYP3A4 worked out at 29.5%. The results for the EC50 at MC4 receptor and at human MC3 receptors were 4.3 nM and 728 nM, respectively. Moreover, the Ki on MC4 receptor (MC4R) was 21.7 nM.
The like results for `CC(=O)N1CCN(C(=O)[C@@H]2CN(c3cccnn3)C[C@H]2c2ccc(F)cc2F)CCCC1c1ccccc1` (mixture of isomers) [Example 103] were, in that order, 53.8%, 9.79 nM, 332 nM and 316 nM.
The like results for `CC(C)C(=O)N1CCN(C(=O)[C@@H]2CN(C(C)(C)C)C[C@H]2c2ccc(F)cc2F)CCC[C@H]1c1ccc(Cl)cc1` [Example 11] were, in that order, 53.5%, 6.73 nM, 3390 nM and 200 nM.
In the case of `CC(C)C(=O)N1CCN(C(=O)[C@@H]2CN(C(C)(C)C)C[C@H]2c2ccc(Cl)cn2)CCC[C@H]1c1ccc(Cl)cc1` [Example 20, 1-{[(3S,4S)-1-tert-butyl-4-(5-chloropyridin-2-yl)pyrrolidin-3-yl]carbonyl}-5S-(4-chlorophenyl)-4-isobutyryl-1,4-diazocane], at CYP3A4, the inhibition at 3 µM was determined as 50.2%. The EC50 on MC4 receptor was determined as 5.46 nM; on human MC3 receptors, 1660 nM. This compound also gave a Ki at MC4 receptor (MC4R) of 68.6 nM.
The like results for `COC(=O)N1CCN(C(=O)[C@@H]2CN(C(C)(C)C)C[C@H]2c2ccc(OC)cc2F)CCCC1c1ccc(Cl)cc1` (some centres unmarked) [Example 91] were, in that order, 33%, 20.2 nM, 7380 nM and 383 nM.
For `COc1ccc([C@@H]2CN(c3ccc(=O)n(C)n3)C[C@H]2C(=O)N2CCCC(c3ccc(Cl)cc3)N(S(C)(=O)=O)CC2)c(F)c1` (single isomer, unassigned) [Example 117], the inhibition at 3 µM at CYP3A4 was 44.5%. The EC50 was found to be 34.9 nM at MC4 receptor and 8360 nM at human MC3 receptors. Also, the Ki at MC4 receptor (MC4R) came to 33.6 nM.
With `COc1ccc([C@@H]2CN(c3ccc(C#N)nn3)C[C@H]2C(=O)N2CCC[C@@H](c3ccc(Cl)cc3)N(C(C)=O)CC2)c(F)c1` [Example 67], the inhibition at 3 µM at CYP3A4 was 29.5%. Moreover, the EC50 on MC4 receptor worked out at 7.73 nM; at human MC3 receptors it was 177 nM. In addition, the Ki on MC4 receptor (MC4R) came to 58.9 nM.
Consider `COC(=O)N1CCN(C(=O)[C@@H]2CN(c3ccc(=O)n(C)n3)C[C@H]2c2ccc(OC)cc2F)CCC[C@@H]1c1ccc(Cl)cc1` [Example 119, methyl 8R-(4-chlorophenyl)-4-{[(3S,4R)-4-(2-fluoro-4-methoxyphenyl)-1-(1-methyl-6-oxo-1,6-dihydropyridazin-3-yl)pyrrolidin-3-yl]carbonyl}-1,4-diazocane-1-carboxylate], for which the inhibition at 3 µM on CYP3A4 stood at 54.5%. Further, the EC50 at MC4 receptor was 8.53 nM; at human MC3 receptors, 11200 nM. Also, the Ki at MC4 receptor (MC4R) is 22.3 nM.
The like results for `CS(=O)(=O)N1CCN(C(=O)[C@@H]2CN(c3ccc(C#N)nn3)C[C@H]2c2ccc(F)cc2F)CCCC1c1ccc(Cl)cc1` (mixture of isomers) [Example 76] were, in that order, 33.5%, 50 nM, 604 nM and 344 nM.
The matching figures for `CNC(=O)N1CCN(C(=O)[C@@H]2CN(c3cccnn3)C[C@H]2c2ccc(F)cc2F)CCCC1c1ccccc1` (mixture of isomers) [Example 73]: 88%, 12.2 nM, 544 nM and 225 nM.
Turning to `CCC(=O)N1CCN(C(=O)[C@@H]2CN(C(C)(C)C)C[C@H]2c2ccc(F)cc2F)CCC[C@H]1c1ccc(Cl)cc1` [Example 10], the inhibition at 3 µM on CYP3A4 is 37.1%. Besides, the values for the EC50 on MC4 receptor and on human MC3 receptors were 17.3 nM and 4190 nM, respectively. Further, the Ki on MC4 receptor (MC4R) stood at 300 nM.
The matching figures for `COC(=O)N1CCN(C(=O)[C@@H]2CN(c3ccc(=O)[nH]n3)C[C@H]2c2ccc(OC)cc2F)CCC[C@@H]1c1ccc(Cl)cc1` [Example 90, methyl 8R-(4-chlorophenyl)-4-{[(3S,4R)-4-(2-fluoro-4-methoxyphenyl)-1-(6-oxo-1,6-dihydropyridazin-3-yl)pyrrolidin-3-yl]carbonyl}-1,4-diazocane-1-carboxylate]: 53.8%, 1.83 nM, 456 nM and 12 nM.
Consider `CCCC(=O)N1CCN(C(=O)[C@@H]2CN(c3cccnn3)C[C@H]2c2ccc(F)cc2F)CCCC1c1ccccc1` (mixture of isomers) [Example 101], for which the inhibition at 3 µM at CYP3A4 was 83%. The EC50 on MC4 receptor is 7.12 nM; on human MC3 receptors, 114 nM. The compound further came in with an inhibition constant (Ki) on MC4 receptor (MC4R) of 77.9 nM.
The like results for `COC(=O)N1CCN(C(=O)[C@@H]2CN(c3ccc(=O)n(C)n3)C[C@H]2c2ccc(OC)cc2F)CCC[C@H]1c1ccc(Cl)cc1` [Example 118] were, in that order, 48%, 1.83 nM, 8200 nM and 24.7 nM.
The matching figures for `CC(=O)N1CCN(C(=O)[C@@H]2CN(c3ccc4nncn4n3)C[C@H]2c2ccc(Cl)cn2)CCC[C@H]1c1ccc(Cl)cc1` [Example 6, 6-[(3S,4S)-3-{[4-acetyl-5S-(4-chlorophenyl)-1,4-diazocan-1-yl]carbonyl}-4-(5-chloropyridin-2-yl)pyrrolidin-1-yl][1,2,4]triazolo[4,3-b]pyridazine]: 54.2%, 1.12 nM, 300 nM and 28.4 nM.
As to `COC(=O)N1CCN(C(=O)[C@@H]2CN(c3ccc(=O)n(C)n3)C[C@H]2c2ccc(F)cc2F)CCC[C@H]1c1ccc(Cl)cc1` [Example 66, methyl (8S-4-chlorophenyl)-4-{[(3S,4R)-4-(2,4-difluorophenyl)-1-(1-methyl-6-oxo-1,6-dihydropyridazin-3-yl)pyrrolidin-3-yl]carbonyl}-1,4-diazocane-1-carboxylate], the inhibition at 3 µM on CYP3A4 came out at 54.2%. For the same compound, the EC50 at MC4 receptor amounted to 2.99 nM; at human MC3 receptors it was 1220 nM. The compound also had a Ki on MC4 receptor (MC4R) of 71.1 nM.
Consider `COc1ccc([C@@H]2CN(C(C)(C)C)C[C@H]2C(=O)N2CCC[C@@H](c3ccc(Cl)cc3)N(C(C)=O)CC2)c(F)c1` [Example 70], for which the inhibition at 3 µM on CYP3A4 came out at 36%. In addition, the EC50 worked out at 20.6 nM at MC4 receptor and 4040 nM at human MC3 receptors. Besides, the Ki at MC4 receptor (MC4R) is 686 nM.
